Measured values reported in patent US4303660A, “Pyrazolo[1,5-c]quinazoline derivatives and analgesic compositions containing them” (priority 1979, dated 1981).
Where two headings read alike, the source gives them in different places.

Key:
Acute toxicity = conditions: mouse, in vivo; oral; mice weighing 18 to 22 g
Experimental: The acute toxicity of the pyrazolo[1,5-c]quinazoline derivatives of the general formula I were determined on mice weighing 18 to 22 g. The compounds were administered orally.

small intestine = experiment: Antiperistaltic effect (carbon suspension, small intestine); format: in vivo, mice; conditions: for ED50: Mus musculus, read-out: ED50 p.o.
Experimental: The antiperistaltic effect of the compounds of the invention was examined on groups of mice consisting of 10 animals. Each dosis of the compound to be tested was administered to one group, orally, 60 minutes prior to the administration of a 10 percent carbon suspension. 20 minutes after the administration of the carbon suspension, the animals were sacrificed and the length of the entire small intestine as well as that of the small intestine filled with carbon were determined. The reference substance used was papaverine [1-(3,4-dimethoxybenzyl)-6,7-dimethoxyisoquinoline].

gastric acid secretion = format: in vivo, rats; conditions: for Inhibition of gastric acid secretion, percentage: rats
Excerpt: The influence of the compounds of the invention on the gastric acid secretion was studied on rats weighing 170 to 260 g according to Shay [Gastroenterology, 5, 43 (1945)].

in vivo = conditions: printed under the reference substance in Table III
acetic acid writhing = experiment: Acetic acid writhing test (analgesic activity); conditions: for ED50: Mus musculus, read-out: ED50 p.o.
Experimental: The analgesic activity was studied by means of the acetic acid writhing test on mice. After the intraperitoneal administration of 0.4 ml of 0.5 percent acetic acid, the writhing responses were counted between the 5 and 10 minutes. The writhing number was calculated as the percentage of the control value. The compounds tested were orally administered to the animals 1 hour prior to the treatment with acetic acid. […] Paracetamole [p-hydroxyacetanilide] and phenylbutazon [4-butyl-1,2-diphenylpyrazolidine-3,5-dione] were used as reference substance.

[1] = antiperistaltic effect, oral, 60 minutes prior to 10 percent carbon suspension, mice

Which results are given for `CC(=O)Nc1cnn2c(C)nc3ccccc3c12` [Example 36, 1-Acetamino-5-methylpyrazolo[1,5-c]quinazoline]?
LD50 (Acute toxicity): 1800 mg/kg; ED50 (small intestine; [1]): 360 mg/kg; Therapeutic index (small intestine; mouse, in vivo, po): 5; Inhibition of gastric acid secretion, percentage (gastric acid secretion; 50 mg/kg p.o.): 30 percentage; Inhibition of gastric acid secretion, percentage (gastric acid secretion; 65 mg/kg p.o.): about 50 percentage; Inhibition of gastric acid secretion, percentage (gastric acid secretion; 100 mg/kg p.o.): 73 percentage; Therapeutic index (gastric acid secretion; rat, in vivo, po): 27.7

What does the source list for `COc1ccc(Cc2nccc3cc(OC)c(OC)cc23)cc1OC` [papaverine, 1-(3,4-dimethoxybenzyl)-6,7-dimethoxyisoquinoline, reference compound]?
ED50 (small intestine; po): 180 mg/kg; Therapeutic index (small intestine; antiperistaltic effect, p.o.): 3.4

With `CN/C(=N/CCSCc1nc[nH]c1C)NC#N` [cimetidine, 1-methyl-3-[2-(5-methylimidazol-4-yl-methylthio)ethyl]guanidine-2-carbonitrile, reference compound] as the compound, how does the LD50 (in vivo) read?
The LD50 was 470 mg/kg.

And the “Inhibition of gastric acid secretion, percentage” value (shortened to “Inhibition … percentage”) (gastric acid secretion; 50 mg/kg p.o.)?
Its value is 45 percentage.

And the Therapeutic index (gastric acid secretion; rat, in vivo, po)?
The Therapeutic index was 9.4.

For `CC(=O)Nc1cnn2c1-c1ccccc1N(C(C)=O)C2C` (stereo not drawn) [Example 35, 1-Acetamino-5-methyl-6-acetyl-5,6-dihydropyrazolo[1,5-c]quinazoline], which LD50 (Acute toxicity) is on record?
The LD50 was 2000 mg/kg.

What about the ED50 (small intestine; [1]) of the same compound?
The ED50 was 145 mg/kg.

And the Therapeutic index (small intestine; mouse, in vivo, po)?
The Therapeutic index was 14.

With `CCCN(CCC)C(=O)C(CCC(=O)O)NC(=O)c1ccccc1` (racemic) [proglumide, D,L-4-benzamido-N,N-dipropylglutaramic acid, reference compound] as the compound, how does the LD50 (in vivo) read?
The LD50 was 2780 mg/kg.

What about the “Inhibition … percentage” value (gastric acid secretion; 200 mg/kg p.o.) of the same compound?
Its value is “about 20 percentage”.

What about the Therapeutic index (gastric acid secretion; gastric acid secretion, p.o.) of the same compound?
The Therapeutic index was 11.4.

Which ED50 (acetic acid writhing; po) does the source give for `CCCCC1C(=O)N(c2ccccc2)N(c2ccccc2)C1=O` [phenylbutazon, 4-butyl-1,2-diphenylpyrazolidine-3,5-dione, reference compound] here?
Its ED50 is 60 mg/kg.

And the Therapeutic index (acetic acid writhing; mouse, in vivo, po)?
The Therapeutic index was 16,6.

For `CC(=O)N1c2ccccc2-c2c([N+](=O)[O-])cnn2C1(C)C` [Example 31, 1-Nitro-5,5-dimethyl-6-acetyl-5,6-dihydropyrazolo[1,5-c]quinazoline], which LD50 (Acute toxicity) is on record?
Its LD50 is 2000 mg/kg.

And the ED50 (small intestine; [1])?
Its ED50 is 50 mg/kg.

And the Therapeutic index (small intestine; mouse, in vivo, po)?
Its Therapeutic index is 40.

Which ED50 (acetic acid writhing; po) does the source give for `CC(=O)Nc1ccc(O)cc1` [paracetamole, p-hydroxyacetanilide, reference compound] here?
Its ED50 is 180 mg/kg.

What about the Therapeutic index (acetic acid writhing; analgesic activity test, p.o.) of the same compound?
The Therapeutic index was 2,8.

For `CC(=O)Nc1cnn2c1-c1ccccc1N(C(C)=O)C2(C)C` [Example 34], which ED50 (acetic acid writhing; po) is on record?
Its ED50 is 25 mg/kg.

What about the Therapeutic index (acetic acid writhing; analgesic activity test, p.o.) of the same compound?
Its Therapeutic index is 80.

What about the LD50 (Acute toxicity) of the same compound?
The LD50 was 2000 mg/kg.

And the ED50 (small intestine; po)?
The ED50 was 60 mg/kg.

What about the Therapeutic index (small intestine; antiperistaltic effect, p.o.) of the same compound?
The Therapeutic index was 33.

Which results are given for `CC(=O)Nc1cnn2c1-c1ccccc1NC2(C)C` [Example 33, 1-Acetamino-5,5-dimethyl-5,6-dihydropyrazolo[1,5-c]quinazoline]?
LD50 (Acute toxicity): 2000 mg/kg; ED50 (small intestine; [1]): 45 mg/kg; Therapeutic index (small intestine; mouse, in vivo, po): 45

With `CC(=O)N1c2ccccc2-c2c([N+](=O)[O-])cnn2C1C` (stereo not drawn) [Example 27, 1-Nitro-5-methyl-6-acetyl-5,6-dihydropyrazolo[1,5-c]quinazoline] as the compound, how does the LD50 (Acute toxicity) read?
The LD50 was 2000 mg/kg.

What about the ED50 (small intestine; [1]) of the same compound?
Its ED50 is 50 mg/kg.

And the Therapeutic index (small intestine; mouse, in vivo, po)?
Its Therapeutic index is 40.

What about the “Inhibition … percentage” value (gastric acid secretion; 50 mg/kg p.o.) of the same compound?
The value was 33 percentage.

What about the “Inhibition … percentage” value (gastric acid secretion; 62 mg/kg p.o.) of the same compound?
Its value is “about 50 percentage”.

What about the “Inhibition … percentage” value (gastric acid secretion; 100 mg/kg p.o.) of the same compound?
The value was 82 percentage.

What about the Therapeutic index (gastric acid secretion; rat, in vivo, po) of the same compound?
The Therapeutic index was 32.3.

For `Cc1nc2ccccc2c2c([N+](=O)[O-])cnn12` [Example 3, 1-Nitro-5-methylpyrazolo[1,5-c]quinazoline], which LD50 (Acute toxicity) is on record?
The LD50 was 2000 mg/kg.

What about the ED50 (small intestine; [1]) of the same compound?
Its ED50 is 400 mg/kg.

And the Therapeutic index (small intestine; mouse, in vivo, po)?
Its Therapeutic index is 5.

Which results are given for `CC1(C)Nc2ccccc2-c2c([N+](=O)[O-])cnn21` [Example 9, 1-Nitro-5,5-dimethyl-5,6-dihydropyrazolo[1,5-c]quinazoline]?
LD50 (Acute toxicity): 2000 mg/kg; ED50 (small intestine; [1]): 400 mg/kg; Therapeutic index (small intestine; mouse, in vivo, po): 5

For `O=[N+]([O-])c1cnn2cnc3ccccc3c12` [Example 1, 1-Nitropyrazolo[1,5-c]quinazoline], which ED50 (acetic acid writhing; po) is on record?
Its ED50 is 50 mg/kg.

What about the Therapeutic index (acetic acid writhing; mouse, in vivo, po) of the same compound?
The Therapeutic index was 40.

What about the LD50 (Acute toxicity) of the same compound?
The LD50 was 2000 mg/kg.

What about the ED50 (small intestine; [1]) of the same compound?
The ED50 was 18 mg/kg.

And the Therapeutic index (small intestine; mouse, in vivo, po)?
The Therapeutic index was 111.

Which results are given for `CC(=O)Nc1cnn2cnc3ccccc3c12` [Example 5, 1-Acetaminopyrazolo[1,5-c]quinazoline]?
LD50 (Acute toxicity): 2000 mg/kg; ED50 (small intestine; [1]): 400 mg/kg; Therapeutic index (small intestine; mouse, in vivo, po): 5; Inhibition of gastric acid secretion, percentage (gastric acid secretion; 70 mg/kg p.o.): about 50 percentage; Inhibition of gastric acid secretion, percentage (gastric acid secretion; 100 mg/kg p.o.): 93 percentage; Therapeutic index (gastric acid secretion; rat, in vivo, po): 28.6
